Experimental data as given in patent publication US7763594B2, “Compositions for the treatment of osteoarthritis and to nourish the synovial fluid” (Bioiberica, S.A., priority 2005, dated 2010).

How the values were obtained:
[1] = tested on: metalloprotease activity (MMP-1-2-3-12-13); assay: Inhibition of metalloprotease activity in IL-1β-stimulated human arthrosic chondrocytes (FRET substrate); type: cell-based; settings: 24 hours preincubation, then 100 U/ml IL-1β for 24 hours; significance p<0.05
Method: Solutions were prepared with the two compositions of the invention. One of them contained 160 μg/ml of hyaluronic acid and 40 μg/ml of dermatan sulphate, and was compared to hyaluronic acid at a concentration of 160 μg/ml and to dermatan sulphate at a concentration of 40 μg/ml. The other composition contained 800 μg/ml of hyaluronic acid and 200 μg/ml of dermatan sulphate and was compared to hyaluronic acid at a concentration of 800 μg/ml and to dermatan sulphate at a concentration of 200 μg/ml. The chondrocytes were isolated from cartilage pieces (from knee or hip) from […] advanced osteoarthritis, by sequential enzymatic digestion: 1 hour with hyaluronidase (0.1 mg/ml), followed by 10 hours with collagenase (type IA, 2 mg/ml) at 37° C. in DMEM/Ham's F12 medium plus penicillin (100 U/ml) and streptomycin (100 μg/ml) in a controlled CO2 atmosphere. […] Cell viability was determined by the Trypan blue exclusion method, which was in excess of 95%. […] Subsequently, supernatants were transferred to a 96-well plaque for fluorescence analysis and the FRET substrate (QXLTM 520) was added for MMP-1-2-3-12-13. The plaque was shaked and fluorescence measured a different times with excitation and emission wavelengths set at 490 nm and 520 nm, respectively. […] Means and standard errors were calculated, and an analysis of variance and Dunnett's t-test were performed. […]

[2] = tested on: human osteoarthritic synoviocytes; assay: Production of endogenous hyaluronic acid by human synoviocytes (ELISA of culture supernatant); type: cell-based
Method: The composition of the invention, the HA extraction and the HA fermentation were separately incubated with synoviocytes for 12 and 24-hour periods. The following concentrations were used, both of the composition of the invention and of the hyaluronic acids: 10 μg/ml, 100 μg/ml and 200 μg/ml.
Synovial tissues were obtained from three osteoarthritic joints.
Synovial tissue was introduced into a sterile vial with DMEM (Dulbecco's Modification of Eagle's Medium) (2%), penicillin (150 U/ml), streptomycin ([…]) and amphotericin B (2 μg/ml), and then placed in a refrigerator (temperature: 0-4° C.) for transferral to the cell culture area. The synovial tissue was diced into fragments approximately sized to 2×2×2 mm^3. The fragments were washed three times in culture medium (RPMI 2% P/S/A). 20 ml of culture medium with 10% trypsin was added, and then incubated in a water bath at 37° C. for 10-15 minutes. Subsequently, the synovium was digested with 25 ml of collagenase solution [2 mg/ml type II collagenase; 5% fetal calf serum (FCS); 2% P/S/A; 1% L-glutamine; and deoxyribonuclease I 0.1 mg/ml or 150 U/l in RPMI]. The vial was introduced into a rotary shaker at 37° C. for approximately 2-4 hours. The cells were strained through a nylon filter with 25 μm diameter pores. A cell count was conducted and the cells were grown to a density of 5,000 to 10,000 cell/cm^2 in culture bottles of 25 or 75 cm^2 surface. The culture medium used was RPM supplemented with 10% FCS, 1% P/S and 1% L-glutamine. The synoviocytes used in the experiments were all from passages 2-3.
Following a 24-hour period culture, the synoviocytes (100,000 cells per well in a 24-well plate with 250 μl of medium) were stimulated using the composition of the invention, the HA extraction and the HA fermentation for 12 and 24-hour periods. Then, the supernatant of the different wells was harvested. The endogenous hyaluronic acid content was measured using an ELISA (Corgenix Inc. USA).
Results are shown as the average of 9 individual experiments performed on the cultures. Results are expressed as averages±S.D. and S.E. The statistical analysis was done using a two-tailed unpaired Student's T-test. A statistical difference is considered significant when p<0.05.

| Substance | reduction of metalloprotease activity (in words) [1] | level of endogenous hyaluronic acid in supernatant ([2]; 12-hour period, 100 μg/ml) | level of endogenous hyaluronic acid in supernatant ([2]; 24-hour period, 100 μg/ml) | level of endogenous hyaluronic acid in supernatant ([2]; 24-hour period, 200 μg/ml) | level of endogenous hyaluronic acid in supernatant ([2]; 12-hour period, 200 μg/ml) |
| --- | --- | --- | --- | --- | --- |
| hyaluronic acid [hyaluronic acid (HA)] | reduction of metalloprotease activity, albeit not at a statistically significant level | – | – | – | – |
| hyaluronic acid [HA extraction] | – | 25,762 ng/ml | 27,634 ng/ml | 91,538 ng/ml | – |
| sodium hyaluronate [HA fermentation] | – | 9,724 ng/ml | 15,706 ng/ml | 72,594 ng/ml | 62,618 ng/ml |
| dermatan sulphate | reduction of metalloprotease activity, albeit not at a statistically significant level | – | – | – | – |
